Results as given in DBAASP.
Converted amounts (≈) assume the structure as drawn.

What was measured:
Assay in all cases: ≥ marks a high value that may be exact or a test limit, other limits are often not marked, values filed in µg/mL are converted to µM
[1] = tested on: Streptococcus salivarius ATCC 13419
[2] = tested on: Staphylococcus aureus ATCC 12600
[3] = tested on: Escherichia coli ATCC 25922
[4] = tested on: Staphylococcus epidermidis ATCC 14990
[5] = tested on: Yersinia pseudotuberculosis YPIII
[6] = tested on: Schizosaccharomyces pombe
[7] = tested on: Pseudomonas aeruginosa ATCC 27853
[8] = tested on: Candida albicans ATCC 10231
[9] = tested on: Pseudomonas syringae pv. tabaci 1918NCPPB
[10] = tested on: Staphylococcus aureus ATCC 25923
[11] = tested on: Acinetobacter baumannii ATCC 19606
Staphylococcus capitis 1 = tested on: Staphylococcus capitis 1
Bacillus megaterium Bm11 = tested on: Bacillus megaterium Bm11
Acinetobacter junii RT-4 = tested on: Acinetobacter junii RT-4
[12] = tested on: Enterococcus faecalis ATCC 29212
[13] = tested on: Staphylococcus aureus Cowan 1
[14] = tested on: Pseudomonas aeruginosa ATCC 15692
Saccharomyces cerevisiae = tested on: Saccharomyces cerevisiae
Escherichia coli D21 = tested on: Escherichia coli D21
[15] = tested on: Streptococcus pyogenes ATCC 21547
[16] = tested on: Staphylococcus epidermidis ATCC 12228
Staphylococcus aureus = tested on: Staphylococcus aureus
[17] = tested on: Malassezia furfur KCTC 7744
[18] = tested on: Trichosporon beigelii KCTC 7707
Pseudomonas aeruginosa = tested on: Pseudomonas aeruginosa
Escherichia coli O157 = tested on: Escherichia coli O157
[19] = tested on: Candida parapsilosis ATCC 22019
[20] = tested on: Candida albicans ATCC 90028
Staphylococcus aureus 1 = tested on: Staphylococcus aureus 1
Pseudomonas aeruginosa 1 = tested on: Pseudomonas aeruginosa 1
Staphylococcus aureus 4 = tested on: Staphylococcus aureus 4
Enterococcus faecium = tested on: Enterococcus faecium
[21] = tested on: Escherichia coli ATCC 25726
[22] = tested on: Batrachochytrium dendrobatidis JEL-197
[23] = tested on: Bacillus subtilis ATCC 6633
[24] = tested on: Candida albicans ATCC 20032
[25] = tested on: Saccharomyces cerevisiae KCTC 7296
[26] = tested on: Bacillus subtilis KCTC 1918
[27] = tested on: Candida albicans TIMM 1768
[28] = tested on: Salmonella typhimurium KCTC 1926
[29] = tested on: Proteus vulgaris KCTC 2433
[30] = tested on: Staphylococcus aureus KCTC 1621
Enterobacter cloacae = tested on: Enterobacter cloacae
[31] = tested on: Salmonella enterica subsp. enterica serovar Typhi
Escherichia coli = tested on: Escherichia coli
Bacillus subtilis = tested on: Bacillus subtilis

Q: Which MIC [1] does the source give for `CC(C)C[C@@H]1NC(=O)[C@H](C(C)C)NC(=O)[C@H](Cc2ccccc2)NC(=O)[C@@H]2CSSC[C@@H]3NC(=O)[C@H](Cc4ccc(O)cc4)NC(=O)[C@@H]4CSSC[C@H](NC(=O)[C@H](CCCN=C(N)N)NC(=O)[C@H]([C@@H](C)O)NC(=O)CNC(=O)[C@H](CC(N)=O)NC(=O)[C@H](CCCN=C(N)N)NC(=O)[C@H](Cc5ccc(O)cc5)NC(=O)[C@H](CSSC[C@H](NC(=O)[C@@H]5CCCN5C1=O)C(=O)N[C@@H](Cc1c[nH]c5ccccc15)C(=O)N[C@@H](CO)C(=O)N[C@@H](C)C(=O)N[C@@H](CCCCN)C(=O)N[C@@H](Cc1ccccc1)C(=O)NCC(=O)N4)NC(=O)[C@H](Cc1ccccc1)NC(=O)CNC(=O)[C@H](CCCCN)NC(=O)[C@H](CCC(N)=O)NC3=O)C(=O)NCC(=O)N[C@@H](CCC(=O)O)C(=O)N[C@@H]([C@@H](C)O)C(=O)N2` [GTRCGETCFVLPCWSAKFGCYCQKGFCYRN] here?
A: 5.9 µM (≈ 20.1 µg/mL)

Q: And the MIC [2]?
A: ≥ 80 µM

Q: What about the MIC [3] of the same compound?
A: 3.4 µM (≈ 11.6 µg/mL)

Q: What about the MIC [4] of the same compound?
A: ≥ 80 µM

Q: `CC(C)C[C@H](NC(=O)[C@H](Cc1c[nH]c2ccccc12)NC(=O)[C@H](CCCN=C(N)N)NC(=O)CNC(=O)[C@H](CC(C)C)NC(=O)[C@H](CC(C)C)NC(=O)[C@H](CCCCN)NC(=O)[C@H](CO)NC(=O)[C@H](CC(C)C)NC(=O)[C@H](Cc1c[nH]c2ccccc12)NC(=O)[C@H](CCC(N)=O)NC(=O)[C@H](CC(C)C)NC(=O)[C@@H](N)CC(C)C)C(N)=O` [LLQWLSKLLGRWL] was tested. Which MIC [5] did it give?
A: 6 µM (≈ 9.75 µg/mL)

Q: And the MIC [6]?
A: 6 µM (≈ 9.75 µg/mL)

Q: What about the MIC [7] of the same compound?
A: > 48 µM

Q: What about the MIC [8] of the same compound?
A: 12 µM (≈ 19.5 µg/mL)

Q: What about the MIC [9] of the same compound?
A: 12 µM (≈ 19.5 µg/mL)

Q: What about the MIC [10] of the same compound?
A: 6 µM (≈ 9.75 µg/mL)

Q: And the MIC [11]?
A: 6 µM (≈ 9.75 µg/mL)

Q: What about the MIC (Staphylococcus capitis 1) of the same compound?
A: 6 µM (≈ 9.75 µg/mL)

Q: What about the MIC (Bacillus megaterium Bm11) of the same compound?
A: 3 µM (≈ 4.88 µg/mL)

Q: What about the MIC (Acinetobacter junii RT-4) of the same compound?
A: 6 µM (≈ 9.75 µg/mL)

Q: And the MIC [12]?
A: 12 µM (≈ 19.5 µg/mL)

Q: What about the MIC [3] of the same compound?
A: > 48 µM

Q: What about the MIC [13] of the same compound?
A: 6 µM (≈ 9.75 µg/mL)

Q: What about the MIC [14] of the same compound?
A: ≥ 48 µM

Q: And the MIC (Saccharomyces cerevisiae)?
A: 12 µM (≈ 19.5 µg/mL)

Q: And the MIC (Escherichia coli D21)?
A: ≥ 48 µM

Q: What about the MIC [15] of the same compound?
A: 6 µM (≈ 9.75 µg/mL)

Q: And the MIC [16]?
A: 3 µM (≈ 4.88 µg/mL)

Q: Which results are given for `CC[C@H](C)[C@H](NC(=O)[C@H](CC(C)C)NC(=O)[C@H](CCCN=C(N)N)NC(=O)[C@@H](NC(=O)[C@H](C)NC(=O)[C@H](CCCCN)NC(=O)[C@H](CC(C)C)NC(=O)[C@H](CC(C)C)NC(=O)[C@@H](N)CCC(=O)O)C(C)C)C(=O)N[C@@H](CCCCN)C(=O)O` [ELLKAVRLIK]?
A: MIC (Staphylococcus aureus): 20 µM (≈ 23.7 µg/mL); MIC [17]: 20 µM (≈ 23.7 µg/mL); MIC [18]: 28.3 µM (≈ 33.4 µg/mL); MIC (Pseudomonas aeruginosa): 5 µM (≈ 5.91 µg/mL); MIC (Escherichia coli O157): 10 µM (≈ 11.8 µg/mL); MIC [19]: 10 µM (≈ 11.8 µg/mL); MIC [20]: 10 µM (≈ 11.8 µg/mL); MIC (Staphylococcus aureus 1): 5 µM (≈ 5.91 µg/mL); MIC (Pseudomonas aeruginosa 1): 10 µM (≈ 11.8 µg/mL); MIC (Staphylococcus aureus 4): 10 µM (≈ 11.8 µg/mL); MIC (Enterococcus faecium): 10 µM (≈ 11.8 µg/mL)

Q: What does the source list for `CSCC[C@H](NC(=O)[C@H](C)NC(=O)[C@H](CC(C)C)NC(=O)[C@@H]1CCCN1C(=O)[C@H](CC(C)C)NC(=O)[C@@H](N)Cc1ccccc1)C(=O)N[C@@H](C)C(=O)N[C@@H](CC(C)C)C(=O)NCC(=O)N[C@@H](CCCCN)C(=O)N[C@@H](CC(C)C)C(=O)N[C@@H](CC(C)C)C(N)=O` [FLPLAMALGKLL]?
A: MIC [21]: ≥ 160 µM; MIC [10]: 40 µM (≈ 51.4 µg/mL); MIC [22]: ≥ 100 µM

Q: How did the MIC [23] turn out when `CC[C@H](C)[C@H](NC(=O)CN)C(=O)NCC(=O)N[C@H](C(=O)N[C@@H](CCCCN)C(=O)N[C@H](C(=O)N[C@@H](CC(C)C)C(=O)NCC(=O)NCC(=O)N[C@H](C(=O)N[C@@H](CCCCN)C(=O)N[C@@H](C)C(=O)N[C@@H](C)C(=O)N[C@@H](CC(C)C)C(=O)N[C@@H](CCCCN)C(=O)NCC(=O)N[C@@H](C)C(=O)N[C@@H](CC(C)C)C(=O)N[C@@H](CCCCN)C(=O)N[C@@H](CCC(=O)O)C(=O)N[C@@H](CC(C)C)C(=O)N[C@@H](C)C(=O)N[C@@H](CO)C(=O)N[C@H](C(=O)N[C@@H](Cc1ccc(O)cc1)C(=O)N[C@H](C(=O)N[C@@H](CC(N)=O)C(N)=O)C(C)C)[C@@H](C)O)C(C)C)[C@@H](C)CC)[C@@H](C)O` [GIGTKILGGVKAALKGALKELASTYVN] was run?
A: 28.1 µM (≈ 75 µg/mL)

Q: What about the MIC [10] of the same compound?
A: 3.52 µM (≈ 9.4 µg/mL)

Q: What about the MIC [3] of the same compound?
A: 7.03 µM (≈ 18.8 µg/mL)

Q: And the MIC [24]?
A: ≥ 37.4 µM

Q: For `CC[C@H](C)[C@H](NC(=O)CNC(=O)[C@H](CC(C)C)NC(=O)[C@H](CCCN=C(N)N)NC(=O)[C@H](CCCCN)NC(=O)[C@H](Cc1ccccc1)NC(=O)[C@@H](NC(=O)[C@H](CCCCN)NC(=O)[C@H](CCCCN)NC(=O)[C@H](C)N)C(C)C)C(=O)NCC(=O)N[C@@H](C)C(=O)N[C@H](C(=O)N[C@@H](CC(C)C)C(=O)N[C@@H](CCCCN)C(=O)N[C@H](C(=O)N[C@@H](CC(C)C)C(=O)N[C@H](C(=O)N[C@@H](Cc1c[nH]c2ccccc12)C(=O)NCC(=O)O)[C@@H](C)O)C(C)C)C(C)C` [AKKVFKRLGIGAVLKVLTWG], which MIC [25] is on record?
A: 17.7 µM (≈ 38.6 µg/mL)

Q: What about the MIC [18] of the same compound?
A: ≥ 35.4 µM

Q: What about the MIC [26] of the same compound?
A: 0.78 µM (≈ 1.7 µg/mL)

Q: And the MIC [27]?
A: ≥ 50 µM

Q: What about the MIC [28] of the same compound?
A: 0.39 µM (≈ 0.852 µg/mL)

Q: And the MIC [29]?
A: 0.78 µM (≈ 1.7 µg/mL)

Q: What about the MIC [30] of the same compound?
A: 0.78 µM (≈ 1.7 µg/mL)

Q: Which MIC (Staphylococcus aureus) does the source give for `CC(C)C[C@H](NC(=O)[C@H](CCCCN)NC(=O)[C@H](CCCN=C(N)N)NC(=O)[C@H](Cc1ccccc1)NC(=O)[C@H](Cc1ccccc1)NC(=O)[C@H](CCCCN)NC(=O)[C@H](CCCCN)NC(=O)[C@H](Cc1ccccc1)NC(=O)[C@H](CCCN=C(N)N)NC(=O)[C@H](CCCCN)NC(=O)[C@@H](NC(=O)[C@@H](N)CC(C)C)C(C)C)C(=O)N[C@@H](CCCCN)C(=O)N[C@@H](CCCCN)C(=O)N[C@@H](CO)C(=O)N[C@H](C(N)=O)C(C)C` [LVKRFKKFFRKLKKSV] here?
A: 31.2 µM (≈ 64 µg/mL)

Q: And the MIC [7]?
A: 31.2 µM (≈ 64 µg/mL)

Q: And the MIC (Enterobacter cloacae)?
A: 15.6 µM (≈ 32 µg/mL)

Q: What about the MIC [31] of the same compound?
A: 1.95 µM (≈ 4 µg/mL)

Q: And the MIC [10]?
A: 1.95 µM (≈ 4 µg/mL)

Q: What about the MIC (Pseudomonas aeruginosa) of the same compound?
A: 7.79 µM (≈ 16 µg/mL)

Q: And the MIC (Escherichia coli)?
A: 15.6 µM (≈ 32 µg/mL)

Q: And the MIC (Bacillus subtilis)?
A: 31.2 µM (≈ 64 µg/mL)

Q: What about the MIC [3] of the same compound?
A: 7.79 µM (≈ 16 µg/mL)

Q: What about the MIC [20] of the same compound?
A: ≥ 62.4 µM
